Where two headings read alike, the source gives them in different places.
Experiments:
[1] = type: physicochemical
Text: This means that an amorphous 2′-FL according to the present invention, the pH of the 5 w/w % aqueous solution of which is around 3.5-4.5, has a slightly shorter shelf-life than that for an amorphous 2′-FL having a pH of 4.5-5.8. […] In this regard it can be concluded that a fucosylated neutral HMO other than 2′-FL is hydrolytically as stable as a non-fucosylated neutral HMO.

[2] = Forced storage stability of 2′-FL and DFL mixture samples at 60° C. and 80° C., analysed by HPAEC (Example 2); type: physicochemical
Experimental: One gram of each sample, separately, was put into a 4 ml glass vial and closed with screw lid containing teflon […]. The 8-week storage sample was put into a 60° C. oven, followed by the 4-week and the 2-week samples 4 and 6 weeks later, respectively), so the incubation of all samples ended in the same time. Similar pattern of experimental design was followed with the samples to be measured at 80° C. (4-week, 2-week and 1-week samples). The samples were kept in a freezer until they were put into the oven at a given time. Standards were kept in a freezer until analysis. The stability samples and the standards were analysed by HPAEC.

[3] = in the acidic samples (pH = 4.5)
[4] = in the neutral sample (pH = 7.0)

hydrolysis to fucose and lactose ([1]; at a pH around 4.0-4.5)	hydrolysis to fucose and lactose ([1]; at around a pH of 3.5)	preferred pH range in which no substantial hydrolysis and rearrangement occur ([2]; estimated from the Example 2 data)	hydrolysis (into fucose and lactose) [2, 3]	hydrolysis (into fucose and lactose) [2, 4]	hydrolytic stability [1]	Compound
still detectable	low degree of hydrolysis	5.2-5.8	slight hydrolysis	did not occur		C[C@@H]1O[C@@H](O[C@H]2[C@H](O[C@H]3[C@H](O)[C@@H](O)C(O)O[C@@H]3CO)O[C@H](CO)[C@H](O)[C@@H]2O)[C@@H](O)[C@H](O)[C@@H]1O (some centres unmarked) [2′-FL, 2′-fucosyllactose]
			did not undergo hydrolysis	did not undergo hydrolysis	hydrolytically stabile	C[C@@H]1O[C@@H](O[C@H]2[C@H](O[C@H]3[C@H](O[C@@H]4O[C@@H](C)[C@@H](O)[C@@H](O)[C@@H]4O)[C@@H](O)C(O)O[C@@H]3CO)O[C@H](CO)[C@H](O)[C@@H]2O)[C@@H](O)[C@H](O)[C@@H]1O (some centres unmarked) [DFL, difucosyllactose]

— US11939351B2, “Amorphous mixture comprising a neutral mono- or oligosaccharide and an acidic non-carbohydrate component” (GLYCOM A/S, priority 2017, dated 2024)
